Assay results published in patent publication US7892784B2, “Lactam ring-opening enzyme and use thereof” (priority 2006, dated 2011).
In brackets after ≈: the same amount, converted by molar mass. Like-named read-outs stand apart in the source and are kept apart here.

Columns and labels:
rSttH [1] = target: T1, rSttH (Streptomyces noursei, UniProt Q1MW86); assay: rSttH reaction rate test (kinetic analysis, HPLC, Lineweaver-Burk); type: biochemical, Streptomyces albulus NBRC14147; conditions: for Vmax: substrate of rSttH, 30° C., 100 mM NaPB (pH 6.5), U = ST-acid production per minute (μmol)
T1 construct: purified rSttH from E. coli M15 (pREP4) carrying pQE30-SHF6R; 6xHis (N); made in house; host or cells: E. coli M15 (pREP4) carrying pQE30-SHF6R
Method: (§1) In accordance with the manufacturer's (Qiagen) protocols, a reaction mixture (500 μL) was prepared using 100 mM sodium phosphate buffer (pH 6.5), 1 mg/mL ST-F or ST-D, and 100 μg/mL of purified rSttH from E. coli M15 (pREP4) carrying pQE30-SHF6R. The reaction mixture was reacted for 1 hour at 30° C. with or without rSttH, and then extracted with chloroform to remove the proteins. The water layer was analyzed by reverse-phase HPLC using an ion-pair reagent. The analytical conditions were: column, C18 reverse-phase column (COSMOSIL 5C18-AR—II, 250×4.6 mm, Nacalai Tesque, Kyoto, Japan); column temperature, 30° C.; detection, 210 nm; and flow rate, 1 mL/minute. Two different mobile phases were used, one of 0.1% heptafluorobutyric acid+18% acetonitrile (ST-F reaction) and one of 0.1% heptafluorobutyric acid+23% acetonitrile (ST-D reaction). The kinetic assays were performed under conditions similar to those described previously except that the enzyme concentrations (2 μg/mL) and reaction times (5 minutes) were reduced to make them compatible with measurement of steady-state kinetic parameters. All tests were carried out under linear conditions. The reactions were terminated by addition of 15 μl 2N HCl, and then analyzed by HPLC. The kinetic constants were estimated using a Lineweaver-Burk plot. The native molecular weight of the rSttH was estimated by gel filtration using a COSMOSIL 5Diol-300 (7.8 mm×600 mm) column (Nacalai Tesque) which had been equilibrated with 20 mM sodium phosphate buffer (pH 7.0) containing 100 mM sodium sulfate.
(§2) The optimal pH was measured in several buffers (100 mM) with differing pH values: sodium phosphate (NaPB), pH 4.5 to 7; Tris-HCl, pH 7 to 10. Activity peaked at a pH of 6.5 and declined rapidly with decreasing pH (around 4). The effect of temperature on enzymatic activity was also investigated within the range of 25° C. to 75° C. using 100 mM NaPB buffer (pH 6.5). Although enzymatic activity was greatest at 45° C., approximately 90% of maximum activity was also detected at 65° C.

rSttH [2] = tested on: T2, rSttH; assay: as above; type: biochemical, Streptomyces albulus NBRC14147; conditions: substrate of rSttH; 30° C., 100 mM NaPB (pH 6.5); average ± s.d. of three tests
T2 construct: purified rSttH from E. coli M15 (pREP4) carrying pQE30-SHF6R; 6xHis (N); made in house; host or cells: E. coli M15 (pREP4) carrying pQE30-SHF6R
Method: as §1, §2

S. cerevisiae CKY8 = assay: MIC of ST-F and ST-D in S. cerevisiae CKY8 overexpressing sttH or nat gene; type: cell-based, Saccharomyces cerevisiae; conditions: SC medium, 2 days at 30° C.
Method: After sequence confirmation, the amplified fragments were inserted into the same sites in pAD4 to prepare pAD4-nat and pAD4-sttH, in which these genes were expressed under the control of the constitutive promoter of yeast alcohol dehydrogenase. S. cerevisiae CKY8 strain carrying pAD4-nat and pAD4-sttH was grown in SC-Leu medium containing ST (ST-F or ST-D, 0 to 4 mM), and the MICs of ST-F and ST-D were determined.
(§3) Although it was previously reported that the biological activity of chemically synthesized ST-F-acid is negligible in microorganisms and plants, that of ST-D-acid remains unclear. Therefore, we determined the respective MICs of ST-F and ST-D in E. coli and Saccharomyces cerevisiae overexpressing the sttH gene or nat gene (Table 3). […] To confirm this, the selective toxicity of ST-acids and STs against various microorganisms including gram-positive and -negative bacteria, clinically isolated pathogenic bacteria and yeasts was investigated. […] A “c/a” in parentheses in the table represents the ratio of the minimum inhibitory concentrations of ST-F-acid and ST-F, while “d/b” represents the ratio of the minimum inhibitory concentrations of ST-D-acid and ST-D.

E. coli XL1-Blue MRF' = assay: MIC of ST-F and ST-D in E. coli XL1-Blue MRF' overexpressing sttH or nat gene; type: cell-based, Escherichia coli; conditions: LB medium, 1 day at 37° C.
Method: Restriction enzyme sites (GGATCC or AAGCTT, underlined) and a stop codon (TCA, underlined) were inserted into these primers. An expression vector (pQE30-nat) having incorporated therein an amplified fragment including these primers was constructed using pQE30. The MIC of ST-F and ST-D in an E. coli XL1-Blue MRF′ strain carrying pQE30-nat and pQE30-SHF6R were determined on LB agar flat plates containing ampicillin (100 μg/mL), 0.1 mM IPTG and STs (0 to 4 mM). S. cerevisiae CKY8 strain overexpressing the nat gene and the sttH gene was also prepared as follows. The following two sets of primers having restriction enzyme sites (AAGCTT or CTGCAG, underlined) and stop codons (TCA, underlined) added thereto were designed and used in PCR:
as §3

S. cerevisiae S288C = assay: MIC test of STs and ST-acids; type: cell-based, Saccharomyces cerevisiae; conditions: YPD medium; 2 days at 30° C.
S. pombe L972 = assay: MIC test of STs and ST-acids; type: cell-based, Schizosaccharomyces pombe; conditions: YPD medium; 2 days at 30° C.
E. coli W3110 = assay: MIC test of STs and ST-acids; type: cell-based, Escherichia coli; conditions: Heart Infusion Broth; 1 day at 37° C.
B. subtilis NBRC13169 = assay: MIC test of STs and ST-acids; type: cell-based, Bacillus subtilis; conditions: Heart Infusion Broth; 1 day at 37° C.
S. aureus AB = type: cell-based, Staphylococcus aureus
S. aureus FIR1169 = type: cell-based, Staphylococcus aureus
[3] = tested on: gram-positive and -negative bacteria, clinically isolated pathogenic bacteria and yeasts; type: cell-based
[4] = tested on: bacteria, fungi and plants; conditions: chemically synthesized from ST-F; reports of Inamori and Taniyama; cited from earlier work
[5] = Enzymatic properties of rSttH (effect of pH and temperature); type: biochemical
Method: as §2

[6] = Heart Infusion Broth, 1 day at 37° C.

NCCC[C@H](N)CC(=O)NCCC[C@H](N)CC(=O)NCCC[C@H](N)CC(=O)N[C@@H]1[C@H](O)[C@@H](OC(N)=O)[C@@H](CO)O[C@H]1NC1=N[C@@H]2C(=O)NC[C@@H](O)[C@H]2N1 [ST-D, streptothricin D]
Vmax (rSttH [1]): 68.95 ± 13.9 U/mg | Km (rSttH [2]): 5.74 ± 0.99 mM | Minimum inhibitory concentration (MIC) (S. cerevisiae CKY8; CKY8 + pAD4-nat): >4 mM | Minimum inhibitory concentration (MIC) (S. cerevisiae CKY8; CKY8 + pAD4-sttH): >4 mM | Minimum inhibitory concentration (MIC) (S. cerevisiae CKY8; CKY8 + pAD4): <0.03 mM | Minimum inhibitory concentration (MIC) (E. coli XL1-Blue MRF'; XL1-Blue MRF' + pQE30-SHF6R): <0.03 mM | Minimum inhibitory concentration (MIC) (E. coli XL1-Blue MRF'; XL1-Blue MRF' + pQE30-nat): 2 mM | Minimum inhibitory concentration (MIC) (E. coli XL1-Blue MRF'; XL1-Blue MRF' + pQE30): <0.03 mM | Minimum inhibitory concentration (MIC) (S. cerevisiae S288C): 0.004 mM (≈ 3.04 µg/mL) | Minimum inhibitory concentration (MIC) (S. pombe L972): 0.008 mM (≈ 6.07 µg/mL) | Minimum inhibitory concentration (MIC) (E. coli W3110): 0.008 mM (≈ 6.07 µg/mL) | Minimum inhibitory concentration (MIC) (B. subtilis NBRC13169): 0.004 mM (≈ 3.04 µg/mL) | Minimum inhibitory concentration (MIC) (S. aureus AB; [6]): 0.004 mM (≈ 3.04 µg/mL) | Minimum inhibitory concentration (MIC) (S. aureus FIR1169; [6]): 0.004 mM (≈ 3.04 µg/mL)

NCCC[C@H](N)CC(=O)N[C@@H]1[C@H](O)[C@@H](OC(N)=O)[C@@H](CO)O[C@H]1NC1=N[C@@H]2C(=O)NC[C@@H](O)[C@H]2N1 [ST-F, streptothricin F]
Vmax/Km of the reaction with ST-F relative to the reaction with ST-D (rSttH [1]; rSttH): 4 fold | Vmax (rSttH [1]): 42.26 ± 2.8 U/mg | Km (rSttH [2]): 0.96 ± 0.19 mM | Minimum inhibitory concentration (MIC) (S. cerevisiae CKY8; CKY8 + pAD4-nat): >4 mM | Minimum inhibitory concentration (MIC) (S. cerevisiae CKY8; CKY8 + pAD4-sttH): >4 mM | Minimum inhibitory concentration (MIC) (S. cerevisiae CKY8; CKY8 + pAD4): 0.5 mM | Minimum inhibitory concentration (MIC) (E. coli XL1-Blue MRF'; XL1-Blue MRF' + pQE30-SHF6R): 0.25 mM | Minimum inhibitory concentration (MIC) (E. coli XL1-Blue MRF'; XL1-Blue MRF' + pQE30-nat): 4 mM | Minimum inhibitory concentration (MIC) (E. coli XL1-Blue MRF'; XL1-Blue MRF' + pQE30): <0.03 mM | Minimum inhibitory concentration (MIC) (S. cerevisiae S288C): 0.062 mM (≈ 31.2 µg/mL) | Minimum inhibitory concentration (MIC) (S. pombe L972): 0.125 mM (≈ 62.8 µg/mL) | Minimum inhibitory concentration (MIC) (E. coli W3110): 0.03 mM (≈ 15.1 µg/mL) | Minimum inhibitory concentration (MIC) (B. subtilis NBRC13169): 0.016 mM (≈ 8.04 µg/mL) | Minimum inhibitory concentration (MIC) (S. aureus AB; [6]): 0.016 mM (≈ 8.04 µg/mL) | Minimum inhibitory concentration (MIC) (S. aureus FIR1169; [6]): 0.016 mM (≈ 8.04 µg/mL)

NCCCC(N)CC(=O)NC1C(/N=C2/NC(C(=O)O)C(C(O)CN)N2)OC(CO)C(OC(N)=O)C1O (centres unmarked) [ST-F-acid]
Minimum inhibitory concentration (MIC) (S. cerevisiae S288C): > 4 mM | ratio of MICs of ST-acid and parent ST (c/a or d/b) (S. cerevisiae S288C): > 64 | Minimum inhibitory concentration (MIC) (S. pombe L972): > 4 mM | ratio of MICs of ST-acid and parent ST (c/a or d/b) (S. pombe L972): > 32 | Minimum inhibitory concentration (MIC) (E. coli W3110): 4 mM (≈ 2080 µg/mL) | ratio of MICs of ST-acid and parent ST (c/a or d/b) (E. coli W3110): 133 | Minimum inhibitory concentration (MIC) (B. subtilis NBRC13169): 4 mM (≈ 2080 µg/mL) | ratio of MICs of ST-acid and parent ST (c/a or d/b) (B. subtilis NBRC13169): 250 | Minimum inhibitory concentration (MIC) (S. aureus AB): 2 (126) mM | Minimum inhibitory concentration (MIC) (S. aureus FIR1169): 2 (126) mM | antimicrobial activity [3]: lost almost all of its antimicrobial activity | antibiotic activity [4]: did not exhibit antibiotic activity

lactam ring-opened streptothricin D derivative [ST-D-acid]
Minimum inhibitory concentration (MIC) (S. cerevisiae S288C): 1 mM | ratio of MICs of ST-acid and parent ST (c/a or d/b) (S. cerevisiae S288C): 250 | Minimum inhibitory concentration (MIC) (S. pombe L972): 1 mM | ratio of MICs of ST-acid and parent ST (c/a or d/b) (S. pombe L972): 125 | Minimum inhibitory concentration (MIC) (E. coli W3110): 0.25 mM | ratio of MICs of ST-acid and parent ST (c/a or d/b) (E. coli W3110): 31.3 | Minimum inhibitory concentration (MIC) (B. subtilis NBRC13169): 0.125 mM | ratio of MICs of ST-acid and parent ST (c/a or d/b) (B. subtilis NBRC13169): 31.3 | Minimum inhibitory concentration (MIC) (S. aureus AB): 0.06 (15) mM | antimicrobial activity (S. aureus AB): particularly strong antimicrobial activity | Minimum inhibitory concentration (MIC) (S. aureus FIR1169): 0.06 (15) mM | antimicrobial activity (S. aureus FIR1169): particularly strong antimicrobial activity

B1: rSttH: recombinant lactam ring-opening enzyme from Streptomyces albulus NBRC14147, N-terminal 6× His Tag fused protein (protein)
chain: VTAMPPETAAPPETAAPARPLRPVQALLVVDVQTAFVSGAEAVPEAARVLDRTRGLLARARTAGALVVHLQNDGAPGAVDAPHTPGWELHLPVEPGPREHVVRKTEDDGFADTGLGALLDAAGVTELAVCGVLSEMCVAATARTALELGHRVVLPHDAHATYDIPAAPDISDTVPAAMSSRAAEWALGDEVEIVPRAAAVPFVAPPLAPAPEAPAAAAAPAAGTGLSPAGPPPAPAR
modifications: N-terminal 6xHis tag; streptomyces albulus
notes: recombinant lactam ring-opening enzyme from Streptomyces albulus NBRC14147, N-terminal 6× His Tag fused protein
optimal pH (activity peak) ([5]; 100 mM buffers: NaPB pH 4.5 to 7, Tris-HCl pH 7 to 10): 6.5 | enzymatic activity relative to maximum activity ([5]; at 65° C., 100 mM NaPB (pH 6.5)): approximately 90% | temperature of greatest enzymatic activity ([5]; range 25° C. to 75° C., 100 mM NaPB (pH 6.5)): 45 °C
